Assay results published in publication PMC5421785, “Citrullination only infrequently impacts peptide binding to HLA class II MHC” (PLoS ONE, 2017).
Where two headings read alike, the source gives them in different places. Square brackets hold non-standard residues; d marks the D form. Peptide text beside a SMILES is read from it. Cit = NC(=O)NCCC[C@H](N)C(=O)O

Legend:
HLA-DRB1*01:01 = molecular target: T1, HLA-DRB1*01:01 (Homo sapiens, UniProt P01903+P01911, A100R/D57E/F55L/F60I/F76Y/I96L/L162R/M171V/P40L/Q125E/R42F/V115G/Y59C); assay: HLA class II peptide binding, inhibition of radiolabeled peptide binding to purified MHC
T1 construct: EBV transformed homozygous cell lines were used as sources of MHC molecules; endogenous in cells; host or cells: EBV transformed homozygous cell lines

HLA-DRB1*04:01 = molecular target: T2, HLA-DRB1*04:01 (Homo sapiens, UniProt P01903+P01911, A100K/A169T/F76Y/I96L/K127E/L162R/M171V/N62H/P40V/Q125Y/R42H/S133A/S149N/S66Y/V115G/V209L/W38E); assay: as above
T2 construct: EBV transformed homozygous cell lines were used as sources of MHC molecules; endogenous in cells; host or cells: EBV transformed homozygous cell lines

[1] = read-out: DRB1*01:01 binding capacity, WT peptide (IC50 nM)
[2] = read-out: DRB1*04:01 binding capacity, WT peptide (IC50 nM)
[3] = wild-type (unmodified Arg) 15-mer peptide, purified HLA-DRB1*01:01, read-out: DRB1*01:01 binding capacity, WT peptide (IC50 nM)
[4] = wild-type (unmodified Arg) 15-mer peptide, purified HLA-DRB1*04:01, read-out: DRB1*04:01 binding capacity, WT peptide (IC50 nM)
[5] = citrullinated 15-mer (X), purified MHC, inhibition of radiolabeled peptide binding, dash = IC50 >40,000 nM, read-out: DRB1*01:01 binding capacity, Cit peptide (IC50 nM)
[6] = citrullinated 15-mer (X), purified MHC, inhibition of radiolabeled peptide binding, dash = IC50 >40,000 nM, read-out: DRB1*04:01 binding capacity, Cit peptide (IC50 nM)
[7] = citrullinated 15-mer peptide (X = citrulline), purified HLA-DRB1*01:01, read-out: DRB1*01:01 binding capacity, Cit peptide (IC50 nM)
[8] = ratio of WT IC50 to Cit IC50, >1 = citrullination increases binding
[9] = citrullinated 15-mer peptide (X = citrulline), purified HLA-DRB1*04:01, read-out: DRB1*04:01 binding capacity, Cit peptide (IC50 nM)

Row | IC50 (HLA-DRB1*01:01; [3]) [nM] | IC50 (HLA-DRB1*04:01; [4]) [nM] | IC50 (HLA-DRB1*01:01; [7]) [nM] | IC50 (HLA-DRB1*04:01; [9]) [nM] | other results | Structure (SMILES)
1 | – | – | – | – | IC50 (HLA-DRB1*01:01; [1]): 3720 nM; IC50 (HLA-DRB1*04:01; [2]): > 40000 nM | CC(C)C[C@H](NC(=O)[C@H](CCCNC(=N)N)NC(=O)[C@H](CO)NC(=O)[C@H](CCCCN)NC(=O)CNC(=O)[C@H](CCC(N)=O)NC(=O)CNC(=O)[C@H](CCCCN)NC(=O)[C@H](CC(C)C)NC(=O)[C@H](CCC(N)=O)NC(=O)[C@@H](N)CCC(=O)O)C(=O)NCC(=O)N[C@@H](CC(=O)O)C(=O)N[C@@H](CC(C)C)C(=O)N[C@@H](Cc1ccc(O)cc1)C(=O)O [Vimentin 136 WT]
2 | – | – | – | – | IC50 (HLA-DRB1*01:01; [1]): 9380 nM; IC50 (HLA-DRB1*04:01; [2]): 38500 nM | CSCC[C@H](NC(=O)[C@H](CCC(=O)O)NC(=O)[C@H](CCC(=O)O)NC(=O)[C@H](CCC(=O)O)NC(=O)[C@H](Cc1ccc(O)cc1)NC(=O)[C@H](CC(C)C)NC(=O)[C@H](CC(=O)O)NC(=O)CNC(=O)[C@@H](N)CC(C)C)C(=O)N[C@@H](CCCNC(=N)N)C(=O)N[C@@H](CCC(=O)O)C(=O)N[C@@H](CC(C)C)C(=O)N[C@@H](CCCNC(=N)N)C(=O)N[C@@H](CCCNC(=N)N)C(=O)N[C@@H](CCC(N)=O)C(=O)O [Vimentin 146 WT]
3 | 7110 | 4550 | – | – | – | CC[C@H](C)[C@H](NC(=O)[C@H](CCC(=O)O)NC(=O)[C@H](CC(=O)O)NC(=O)[C@@H](N)CCC(N)=O)C(=O)N[C@@H](CCC(N)=O)C(=O)N[C@@H](CC(N)=O)C(=O)N[C@@H](CCSC)C(=O)N[C@@H](CCCCN)C(=O)N[C@@H](CCC(=O)O)C(=O)N[C@@H](CCC(=O)O)C(=O)N[C@@H](CCSC)C(=O)N[C@@H](C)C(=O)N[C@@H](CCCNC(=N)N)C(=O)N[C@@H](Cc1c[nH]cn1)C(=O)N[C@@H](CC(C)C)C(=O)O [Vimentin 366 WT]
4 | 3020 | > 40000 | – | – | – | CSCC[C@H](NC(=O)[C@H](CCC(=O)O)NC(=O)[C@H](CCC(=O)O)NC(=O)[C@H](CCCCN)NC(=O)[C@H](CCSC)NC(=O)[C@@H](N)CC(N)=O)C(=O)N[C@@H](C)C(=O)N[C@@H](CCCNC(=N)N)C(=O)N[C@@H](Cc1c[nH]cn1)C(=O)N[C@@H](CC(C)C)C(=O)N[C@@H](CCCNC(=N)N)C(=O)N[C@@H](CCC(=O)O)C(=O)N[C@@H](Cc1ccc(O)cc1)C(=O)N[C@@H](CCC(N)=O)C(=O)N[C@@H](CC(=O)O)C(=O)O [Vimentin 371 WT]
5 | 192 | 1220 | – | – | – | CC[C@H](C)[C@H](NC(=O)[C@H](CC(=O)O)NC(=O)[C@H](CC(C)C)NC(=O)[C@H](C)NC(=O)[C@H](CCSC)NC(=O)[C@H](CCCCN)NC(=O)[C@@H](NC(=O)[C@H](CC(N)=O)NC(=O)[C@H](CC(C)C)NC(=O)[C@H](CC(C)C)NC(=O)[C@H](CC(=O)O)NC(=O)[C@H](CCC(N)=O)NC(=O)[C@H](Cc1ccc(O)cc1)NC(=O)[C@H](CCC(=O)O)NC(=O)[C@@H](N)CCCNC(=N)N)C(C)C)C(=O)O [Vimentin 381 WT]
6 | 1920 | 2710 | – | – | – | CC[C@H](C)[C@H](NC(=O)[C@H](CCCNC(=N)N)NC(=O)[C@H](CO)NC(=O)[C@H](CCC(=O)O)NC(=O)[C@H](CCC(=O)O)NC(=O)CNC(=O)[C@H](CCC(=O)O)NC(=O)[C@H](CC(C)C)NC(=O)[C@H](CC(C)C)NC(=O)[C@H](CCCCN)NC(=O)[C@@H](N)CCCNC(=N)N)C(=O)N[C@@H](CO)C(=O)N[C@@H](CC(C)C)C(=O)N1CCC[C@H]1C(=O)N[C@@H](CC(C)C)C(=O)O [Vimentin 401 WT]
7 | 326 | 7000 | – | – | – | CC[C@H](C)[C@H](N)C(=O)N[C@@H](CO)C(=O)N[C@@H](CC(C)C)C(=O)N1CCC[C@H]1C(=O)N[C@@H](CC(C)C)C(=O)N1CCC[C@H]1C(=O)N[C@@H](CC(N)=O)C(=O)N[C@@H](Cc1ccccc1)C(=O)N[C@@H](CO)C(=O)N[C@@H](CO)C(=O)N[C@@H](CC(C)C)C(=O)N[C@@H](CC(N)=O)C(=O)N[C@@H](CC(C)C)C(=O)N[C@@H](CCCNC(=N)N)C(=O)N[C@@H](CCC(=O)O)C(=O)O [Vimentin 411 WT]
8 | 96 | 3740 | – | – | – | CC(C)C[C@H](NC(=O)[C@H](CC(N)=O)NC(=O)[C@@H](NC(=O)[C@H](CCC(=O)O)NC(=O)[C@H](CCCNC(=N)N)NC(=O)[C@H](CC(C)C)NC(=O)[C@H](CC(N)=O)NC(=O)[C@@H](N)CC(C)C)[C@@H](C)O)C(=O)N[C@@H](CC(=O)O)C(=O)N[C@@H](CO)C(=O)N[C@@H](CC(C)C)C(=O)N1CCC[C@H]1C(=O)N[C@@H](CC(C)C)C(=O)N[C@H](C(=O)N[C@@H](CC(=O)O)C(=O)O)C(C)C [Vimentin 421 WT]
9 | – | – | – | – | IC50 (HLA-DRB1*01:01; [5]): 25300 nM; IC50 (HLA-DRB1*04:01; [6]): 6330 nM | CC(C)C[C@H](NC(=O)[C@@H](NC(=O)[C@H](CC(N)=O)NC(=O)[C@H](CCC(=O)O)NC(=O)[C@H](C)NC(=O)[C@H](CCC(=O)O)NC(=O)[C@H](CCC(=O)O)NC(=O)[C@@H](N)CCCNC(N)=O)[C@@H](C)O)C(=O)N[C@@H](CCC(N)=O)C(=O)N[C@@H](CO)C(=O)N[C@@H](Cc1ccccc1)C(=O)N[C@@H](CCCNC(=N)N)C(=O)N[C@@H](CCC(N)=O)C(=O)N[C@@H](CC(=O)O)C(=O)N[C@H](C(=O)O)C(C)C [XEEAENTLQSFRQDV] (H-[Cit]EEAENTLQSFRQDV-OH)
10 | – | – | > 40000 | > 40000 | DRB1*01:01 binding capacity, WT/cit ratio (HLA-DRB1*01:01; [8]): 1.0; DRB1*04:01 binding capacity, WT/cit ratio (HLA-DRB1*04:01; [8]): 1.0 | C[C@H](NC(=O)CNC(=O)[C@@H]1CCCN1C(=O)[C@H](CO)NC(=O)CNC(=O)[C@H](CCC(=O)O)NC(=O)[C@@H](N)CCCNC(N)=O)C(=O)N[C@@H](CC(=O)O)C(=O)NCC(=O)N1CCC[C@H]1C(=O)N1CCC[C@H]1C(=O)NCC(=O)N[C@@H](CCCNC(=N)N)C(=O)N[C@@H](CC(=O)O)C(=O)NCC(=O)O [XEGSPGADGPPGRDG] (H-[Cit]EGSPGADGPPGRDG-OH; N-terminus and C-terminus assumed)
11 | – | – | – | – | IC50 (HLA-DRB1*01:01; [5]): 26100 nM; IC50 (HLA-DRB1*04:01; [6]): > 40000 nM | CSCC[C@H](NC(=O)[C@H](CCC(=O)O)NC(=O)[C@H](CCC(=O)O)NC(=O)[C@H](CCC(N)=O)NC(=O)[C@H](CC(C)C)NC(=O)[C@H](CCCCN)NC(=O)[C@H](CCC(=O)O)NC(=O)[C@@H](N)CCCNC(N)=O)C(=O)N[C@@H](CC(C)C)C(=O)N[C@@H](CCC(N)=O)C(=O)N[C@@H](CCCNC(=N)N)C(=O)N[C@@H](CCC(=O)O)C(=O)N[C@@H](CCC(=O)O)C(=O)N[C@@H](C)C(=O)N[C@@H](CCC(=O)O)C(=O)O [XEKLQEEMLQREEAE] (H-[Cit]EKLQEEMLQREEAE-OH)
12 | – | – | 57 | 1070 | – | CC[C@H](C)[C@H](NC(=O)[C@H](CC(=O)O)NC(=O)[C@H](CC(C)C)NC(=O)[C@H](C)NC(=O)[C@H](CCSC)NC(=O)[C@H](CCCCN)NC(=O)[C@@H](NC(=O)[C@H](CC(N)=O)NC(=O)[C@H](CC(C)C)NC(=O)[C@H](CC(C)C)NC(=O)[C@H](CC(=O)O)NC(=O)[C@H](CCC(N)=O)NC(=O)[C@H](Cc1ccc(O)cc1)NC(=O)[C@H](CCC(=O)O)NC(=O)[C@@H](N)CCCNC(N)=O)C(C)C)C(=O)O [XEYQDLLNVKMALDI]
13 | – | – | 493 | > 40000 | – | CSCC[C@H](NC(=O)[C@@H](NC(=O)CNC(=O)[C@@H]1CCCN1C(=O)[C@H](CCC(N)=O)NC(=O)CNC(=O)[C@@H](N)CCCNC(N)=O)C(C)C)C(=O)NCC(=O)N[C@@H](Cc1ccccc1)C(=O)N1CCC[C@H]1C(=O)NCC(=O)N1CCC[C@H]1C(=O)N[C@@H](CCCCN)C(=O)NCC(=O)N[C@@H](C)C(=O)O [XGQPGVMGFPGPKGA] (H-[Cit]GQPGVMGFPGPKGA-OH)
14 | – | – | 853 | 1890 | – | CC[C@H](C)[C@H](NC(=O)[C@H](CCCNC(=N)N)NC(=O)[C@H](CO)NC(=O)[C@H](CCC(=O)O)NC(=O)[C@H](CCC(=O)O)NC(=O)CNC(=O)[C@H](CCC(=O)O)NC(=O)[C@H](CC(C)C)NC(=O)[C@H](CC(C)C)NC(=O)[C@H](CCCCN)NC(=O)[C@@H](N)CCCNC(N)=O)C(=O)N[C@@H](CO)C(=O)N[C@@H](CC(C)C)C(=O)N1CCC[C@H]1C(=O)N[C@@H](CC(C)C)C(=O)O [XKLLEGEESRISLPL]
15 | – | – | 5110 | 15500 | – | CC(C)C[C@H](NC(=O)[C@H](C)NC(=O)[C@H](CC(=O)O)NC(=O)[C@@H](NC(=O)[C@H](CCC(=O)O)NC(=O)[C@H](CS)NC(=O)[C@@H](NC(=O)[C@H](CC(C)C)NC(=O)[C@H](CO)NC(=O)[C@H](CCC(N)=O)NC(=O)[C@@H](NC(=O)[C@H](CCC(N)=O)NC(=O)[C@@H](N)CCCNC(N)=O)C(C)C)[C@@H](C)O)C(C)C)C(=O)N[C@@H](CCCCN)C(=O)NCC(=O)O [XQVQSLTCEVDALKG] (H-[Cit]QVQSLTCEVDALKG-OH)
16 | – | – | – | – | IC50 (HLA-DRB1*01:01; [5]): 533 nM; IC50 (HLA-DRB1*04:01; [6]): 9620 nM | CC(C)C[C@H](NC(=O)[C@H](CC(C)C)NC(=O)[C@H](CCCNC(=N)N)NC(=O)[C@@H](NC(=O)CNC(=O)[C@@H]1CCCN1C(=O)[C@@H](NC(=O)[C@H](CO)NC(=O)[C@H](CO)NC(=O)[C@@H](N)CCCNC(N)=O)C(C)C)C(C)C)C(=O)N[C@@H](CCC(N)=O)C(=O)N[C@@H](CC(=O)O)C(=O)N[C@@H](CO)C(=O)N[C@H](C(=O)N[C@@H](CC(=O)O)C(=O)O)C(C)C [XSSVPGVRLLQDSVD] (H-[Cit]SSVPGVRLLQDSVD-OH)
